Assays:
[1] = tested on: ovariectomized (OVX) rats, uterus; assay: Uterine weight in ovariectomized rats, four day oral dosing; assay type: in vivo, Sprague Dawley rats; conditions: for Uterine Weight (% inc. OVX): daily for 4 days, vs OVX control
Description: (§1) In the examples illustrating the methods, a post-menopausal model was used in which effects of different treatments upon various biological parameters were determined, including serum cholesterol concentration, uterine weight, estrogen receptor binding, uterine eosinophil peroxidase activity, MCF-7 cell proliferation, and bone density.
(§2) Seventy-five day old female Sprague Dawley rats (weight range of 200 to 225 g) were obtained from Charles River Laboratories (Portage, Mich.). The animals were either bilaterally ovariectomized (OVX) or exposed to a sham surgical procedure (Intact) at Charles River Laboratories, and then shipped after one week. Upon arrival, they were housed in metal hanging cages in groups of 3 or 4 per cage and had ad libi tum access to food (calcium content approximately 0.5%) and water for one week. Room temperature was maintained at 22.20°±1.70° C. with a minimum relative humidity of 40%. The photoperiod in the room was 12 hours light and 12 hours dark.
(§3) After a one week acclimation period (therefore, two weeks post-OVX), daily dosing with test compound was initiated. 17a-Ethynyl estradiol (EE2) (Sigma Chemical Co., St. Louis, Mo.), an orally available form of estrogen, or the test compound were given orally, unless otherwise stated, as a suspension in 1% carboxymethyl cellulose or dissolved in 20% β-cyclodextrin. Animals were dosed daily for 4 days. Following the dosing regimen, animals were weighed and anesthetized with a ketamine:xylazine (2:1, v:v) mixture. A blood sample was collected by cardiac puncture. The animals were then sacrificed by asphyxiation with CO2, the uterus was removed through a midline incision, and a wet uterine weight was determined.
(§4) Data presented in Table 1 below show comparative results among control ovariectomized rats, rats treated with EE2, and rats treated with certain compounds of the present invention. […] This uterine response to estrogen is well recognized in the art.
(§5) The data presented in Table 1 reflect the response of 5 or 6 rats per treatment.

[2] = tested on: uterine eosinophil peroxidase activity; assay: Uterine eosinophil peroxidase (EPO) assay in ovariectomized rats, four day dosing; assay type: in vivo, Sprague Dawley rats; set-up: Uterine EPO (Vmax): unit not given beside the values; conditions: for Uterine EPO (Vmax): daily for 4 days
Description: as §1, §2, §3
Uteri were kept at 4° C. until time of enzymatic analysis. The uteri were then homogenized in 50 volumes of 50 mM Tris buffer (pH--8.0) containing 0.005% Triton X-100. Upon addition of 0.01% hydrogen peroxide and 10 mM o-phenylenediamine (final concentrations) in Tris buffer, increase in absorbance was monitored for one minute at 450 nm. The presence of eosinophils in the uterus, as measured by assay of eosinophil peroxidase activity, is an indication of estrogenic activity of a compound. The maximal velocity of a 15 second interval was determined over the initial, linear portion of the reaction curve.
As is expressed in the data below, estrogenicity also was assessed by evaluating the adverse response of eosinophil infiltration into the uterus.
as §5

serum cholesterol = assay: Serum cholesterol in ovariectomized rats, four day oral dosing; assay type: in vivo, Sprague Dawley rats; conditions: for Serum Cholesterol (% decrease OVX): daily for 4 days, vs OVX control
Description: as §1, §2, §3
Blood samples were allowed to clot at room temperature for 2 hours, and serum was obtained following centrifugation for 10 minutes at 3000 rpm. Serum cholesterol was determined using a Boehringer Mannheim Diagnostics high performance cholesterol assay. Briefly the cholesterol was oxidized to cholest-4-en-3-one and hydrogen peroxide. The hydrogen peroxide was then reacted with phenol and 4-aminophenazone in the presence of peroxidase to produce a p-quinone imine dye, which was read spectrophotemetrically at 500 nm. Cholesterol concentration was then calculated against a standard curve. The entire assay was automated using a Biomek Automated Workstation.
as §4, §5

[3] = tested on: MCF-7 breast adenocarcinoma cells; assay: MCF-7 proliferation assay; assay type: cell-based; conditions: Homo sapiens, MCF7; MCF-7 cells, tritiated thymidine pulse after 48 hours with compound; read-out: ED50 (the source's name)
Description: MCF-7 breast adenocarcinoma cells (ATCC HTB 22) were maintained in MEM (minimal essential medium, phenol red-free, Sigma, St. Louis, Mo.) supplemented with 10% fetal bovine serum (FBS) (V/V), L-glutamine (2 mM), sodium pyruvate (1 mM), HEPES {(N-[2-hydroxyethyl]piperazine-N'-[2-ethanesulfonic acid]10 mM}, non-essential amino acids and bovine insulin (1 μg/ml) (maintenance medium). Ten days prior to assay, MCF-7 cells were switched to maintenance medium supplemented with 10% dextran coated charcoal stripped fetal bovine serum (DCC-FBS) assay medium) in place of 10% FBS to deplete internal stores of steroids. MCF-7 cells were removed from maintenance flasks using cell dissociation medium (Ca++/Mg++ free HBSS (phenol red-free) supplemented with 10 mM HEPES and 2 mM EDTA). Cells were washed twice with assay medium and adjusted to 80,000 cells/ml. […] Serial dilutions of drugs or DMSO as a diluent control were prepared in assay medium and […] to triplicate microcultures followed by […] assay medium for a final volume of […]. After an additional 48 hours at 37° C. in a 5% CO2 humidified incubator, microcultures were pulsed with tritiated thymidine (1 uCi/well) for 4 hours. Cultures were terminated by freezing at -70° C. for 24 hours followed by thawing and harvesting of microcultures. Samples were counted by liquid scintillation.

MCF-7 Estrogen Receptor = biological target: T1, MCF-7 Estrogen Receptor (Homo sapiens, UniProt P03372); assay: MCF-7 estrogen receptor binding assay, competition with tritiated 17β-estradiol
T1 construct: protein from MCF-7 lysates; endogenous in cells; host or cells: MCF-7 (lysate)
T1 sequence (P03372 1-595): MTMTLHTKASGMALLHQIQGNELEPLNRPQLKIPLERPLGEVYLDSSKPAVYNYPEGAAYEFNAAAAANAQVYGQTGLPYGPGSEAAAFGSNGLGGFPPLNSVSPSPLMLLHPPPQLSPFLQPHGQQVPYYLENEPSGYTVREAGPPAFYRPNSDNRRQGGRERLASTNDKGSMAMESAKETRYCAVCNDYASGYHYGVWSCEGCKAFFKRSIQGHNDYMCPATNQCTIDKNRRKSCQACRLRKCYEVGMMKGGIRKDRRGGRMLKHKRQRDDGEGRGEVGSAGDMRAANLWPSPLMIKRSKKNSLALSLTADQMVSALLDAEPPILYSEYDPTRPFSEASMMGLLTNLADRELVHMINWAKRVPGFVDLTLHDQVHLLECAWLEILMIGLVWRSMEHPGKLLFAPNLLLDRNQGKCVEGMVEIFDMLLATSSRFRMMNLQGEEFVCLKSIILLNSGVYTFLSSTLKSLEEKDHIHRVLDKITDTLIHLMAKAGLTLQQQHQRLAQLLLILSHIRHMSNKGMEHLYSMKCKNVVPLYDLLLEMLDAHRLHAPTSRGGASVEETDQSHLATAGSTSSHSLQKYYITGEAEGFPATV
Description: Binding was allowed to take place for 18 hours at 5-- C., followed by the addition of 0.07 mL of dextran/charcoal and centrifugation to remove non-bound radioligand. Aliquots of supernate containing bound radioligand were mixed with scintillant and counted. Relative binding affinity (RBA) was calculated as: [formula]

Compound | Uterine Weight (% inc. OVX) ([1]; 0.1 mg/kg PO) | action on the uterus / uterine weight, in words ([1]; orally, 0.1 mg/Kg/day) | Uterine EPO (Vmax) ([2]; 0.1 mg/kg PO) | eosinophil infiltration into the uterus, in words ([2]; ovariectomized rats, by assay of eosinophil peroxidase activity) | Serum Cholesterol (% decrease OVX) (serum cholesterol; 0.1 mg/kg PO) | serum cholesterol, in words (serum cholesterol; orally, 0.1 mg/Kg/day) | Uterine Weight (% inc. OVX) ([1]; 1 mg/kg PO) | Uterine Weight (% inc. OVX) ([1]; 10 mg/kg PO) | Uterine EPO (Vmax) ([2]; 1 mg/kg PO) | Uterine EPO (Vmax) ([2]; 10 mg/kg PO) | Serum Cholesterol (% decrease OVX) (serum cholesterol; 1 mg/kg PO) | Serum Cholesterol (% decrease OVX) (serum cholesterol; 10 mg/kg PO) | IC50 [3] | Relative binding affinity (RBA) (MCF-7 Estrogen Receptor)
C#C[C@]1(O)CC[C@H]2[C@@H]3CCc4cc(O)ccc4[C@H]3CC[C@@]21C [Ethynyl estradiol, 17a-Ethynyl estradiol, reference compound] | 144.1% | marked stimulatory action on the uterus | 123.9 | substantial, expected increase in eosinophil infiltration | 80.3% | decrease in serum cholesterol |  |  |  |  |  |  |  | 
O=C(c1ccc(NCCN2CCCCC2)cc1)c1c(-c2ccc(O)cc2)sc2cc(O)ccc12 [Example 2] | -5.0% |  | 1.8 |  | -0.5% |  | 15.8% | 35.6% | 2.4 | 2.1 | 13.6% | 42.4% | 2 nM | 
O=C(c1ccc(SCCN2CCCCC2)cc1)c1c(-c2ccc(O)cc2)sc2cc(O)ccc12 [Example 4, 6-hydroxy-2-(4-hydroxyphenyl)-3-[4-(2-(piperidin-1-yl)ethylthio)benzoyl]-benzo[b]thiophene] | 3.5% |  | 3.3 |  | -16.6% |  | 23.1% | 16.7% | 1.2 | 1.8 | 37.5% | 47.5% | 0.9 nM | 
CN(CCN1CCCCC1)c1ccc(C(=O)c2c(-c3ccc(O)cc3)sc3cc(O)ccc23)cc1 [Example 6, 6-hydroxy-2-(4-hydroxyphenyl)-3-[4-(N-methyl-N-2-(piperidin-1-yl)ethylamino)benzoyl]-benzo[b]thiophene] | 17.1% |  | 4.5 |  | 4.7% |  | 45.4% | 43.0% | 3.3 | 6.0 | 42.0% | 65.1% | 10 nM | 0.19
COc1ccc(-c2sc3cc(OC)ccc3c2C(=O)c2ccc(S(=O)(=O)CCN3CCCCC3)cc2)cc1 [Example 7, 6-methoxy-2-(4-methoxyphenyl)-3-[4-(2-(piperidin-1-yl)ethylsulfonyl)benzoyl]benzo[b]thiophene] | 26.4% |  | 7.5 |  | -4.4% |  | 18.6% | 48.4% | 4.8 | 8.4 | 12.0% | 28.7% | 1000 nM | < 0.002
O=C(c1ccc(S(=O)(=O)CCN2CCCCC2)cc1)c1c(-c2ccc(O)cc2)sc2cc(O)ccc12 [Example 8, 6-hydroxy-2-(4-hydroxyphenyl)-3-[4-(2-(piperidin-1-yl)ethylsulfonyl)benzoyl]benzo[b]thiophene] | 16.2% |  | 4.8 |  | -23.3% |  | 66.9% | 75.0% | 13.5 | 23.1 | 17.2% | 62.3% | 30 nM | 
